From patent publication US20210179577A1, “AROMATIC SULFONAMIDE DERIVATIVES FOR THE TREATMENT OF ISCHEMIC STROKE” (Bayer Aktiengesellschaft, priority 2017, published 2021)
Values joined by “and” are separate entries in the source; they are usually repeats but may differ in a detail not shown here. Identical values can stand only once.

Experiments:
Type in all cases: cell-based
hP2X4 = target: T1, hP2X4 (Homo sapiens, UniProt Q99571); test: Human P2X4 HEK Cell Electrophysiology Assay B (QPatch); details: ATP 5 microM, -90 mV; read-out: Human P2X4 HEK Cells (QPatch Electrophysiology) avg IC50
T1 construct: expressed in transfected cells; host or cells: HEK-293 mito-Photina, clone 2a/4
T1 sequence (Q99571 1-388): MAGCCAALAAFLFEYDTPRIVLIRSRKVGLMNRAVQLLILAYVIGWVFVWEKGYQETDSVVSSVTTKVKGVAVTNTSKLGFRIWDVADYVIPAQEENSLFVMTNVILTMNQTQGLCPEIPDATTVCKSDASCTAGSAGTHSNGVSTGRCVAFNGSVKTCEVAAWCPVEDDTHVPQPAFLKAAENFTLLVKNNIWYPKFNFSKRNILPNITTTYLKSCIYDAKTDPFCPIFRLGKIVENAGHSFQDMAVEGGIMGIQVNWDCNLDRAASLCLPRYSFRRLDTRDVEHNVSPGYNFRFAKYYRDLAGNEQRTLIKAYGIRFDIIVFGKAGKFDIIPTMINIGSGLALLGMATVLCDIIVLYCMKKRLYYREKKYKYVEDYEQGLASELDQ
Method: Cell culture conditions: HEK-293 mito-Photina pcDNA3(neo-)/pPURO N/pcDNA3_P2RX4, clone 2a/4 (HEK-293 mito-Photina/hP2RX4) cells were cultured in EMEM Minimum Essential Medium Eagle with Earl's salts Balanced Salt Solution (BioWhittaker cat. BE12-125F) supplemented with 5 mL of 200 mM Ultraglutaminel (BioWhittaker cat. BE17-605E/U1), 5 mL of 100× Penicillin/Streptomycin (BioWhittaker cat. DE17-602E; final concentration 1%), 4 mL of 50 mg/mL G418 (Sigma cat. G8168-100 mL; final concentration 400 μg/mL), 10 μL of 10 mg/mL Puromicin (InvivoGen cat. ant-pr-1; final concentration 0.2 μg/mL) and 50 mL of Fetal Bovine Serum (Sigma cat. F7524; final concentration 10%).
Experimentalprotocol: HEK-293 cell lines are seeded 72 or 96 hours before experiment, at a concentration of 5 or 2.5 million cells, respectively onto a T225 flask. Just before the experiments cells are washed twice with D-PBS w/o Ca2+/Mg2+(Euroclone cat. ECB4004L) and detached from the flask with trypsin-EDTA (Sigma, cat. T4174 diluted 1/10). Cells are then re-suspended in the suspension solution: 25 mL EX-CELL ACF CHO medium (Sigma, cat. C5467); 0.625 mL HEPES (BioWhittaker, cat. BE17-737E); 0.25 mL of 100× Penicillin/Streptomycin (BioWhittaker, cat. DE17-602E), 0.1 mL of Soybean Trypsin Inhibitor 10 mg/mL (Sigma, cat. T6522) and placed on the QPatch 16X.
Compound preparation and storage: Compound stock solutions (10 mM; 100% DMSO; stored at −20° C.) were used. Fresh solutions from stock (1 or 3 mM, 100% DMSO) were prepared just before the experiments (0.1% final DMSO concentration).
Patch clamp analysis with QPatch16X (FIG. 1): Standard whole-cell voltage clamp experiments are performed at room temperature using the multihole technology.
For the voltage clamp experiments on hP2X4, data are sampled at 2 KHz. After establishment of the seal and the passage in the whole cell configuration, the cells are held at −90 mV and the hP2X4 current is evoked by the agonist in the absence (vehicle period, i.e. 0.1% DMSO) or in the presence of the compound under investigation at increasing concentrations; see the application protocol in FIG. 1.
Output: the maximum inward current induced by the agonist (ATP 5 microM).
The intracellular solution contained (mM) 135 CsF, 10 NaCl, 1 EGTA, 10 HEPES (pH 7.2 with CsOH) whereas the extracellular solution (mM) 145 NaCl, 4 KCl, 0.5 MgCl2, 1 CaCl2, […], 10 Glucose (pH 7.4 with NaOH).
For data collection, the Sophion software was used and the analysis was performed off-line using Excel and GraphPad Prism.
When possible, i.e. when the % of inhibition with the highest concentration tested was more than 50%, the dose-response curves data were fitted with the following equation:
[X is log of concentration; Y is normalized response (100% down to 0%, decreasing as X increases); Log IC50 same log units as X; HillSlope is unitless slope factor or hill slope]

human P2X4 = target: T2, human P2X4 (Homo sapiens, UniProt Q99571); test: Human P2X4 HEK Cell FLIPR Assay; set-up: expressed in transfected cells; host or cells: HEK293; details: HEK293 cells, agonist Bz-ATP at EC80; for Emax: percentage of maximal inhibition, read-out: Human P2X4 HEK Cells (FLIPR Assay) avg Efficacy
T2 sequence (Q99571 1-388): T1 sequence (Q99571 1-388)
Method: HEK293 cells stably expressing human P2X4 were plated in poly-D-lysine-coated 384-well plates at a seeding density of 30000 cells/well and incubated overnight. P2X4 function was assessed by measuring intracellular calcium changes using the calcium-chelating dye Fluo8-AM (Molecular Devices) on a fluorescent imaging plate reader (FLEX/FLIPR station; Molecular Devices). On the day of the assay, the medium was removed and the cells were incubated for 30 min at 37° C. and 5% CO2 in 30 μL of dye buffer (Hank's balanced salt solution, 10 mM HEPES, 1.8 mM CaCl2, 1 mM MgCl2, 2 mM probenecid, 5 mM D-glucose monohydrate, 5 μM Fluo8-AM, pH=7.4). Compounds diluted in probenecid buffer (Hank's balanced salt solution, 10 mM HEPES, 1.8 mM CaCl2, 1 mM MgCl2, 2 mM probenecid, 5 mM D-glucose monohydrate, pH=7.4) were added in a volume of 10 μL and allowed to incubate for 30 min at room temperature. The final assay DMSO concentration was 0.5%. The agonist, Bz-ATP (Tocris), was added in a volume of 10 μL at a concentration representing the EC80 value. The EC80 value of Bz-ATP was determined each assay day prior to compound profiling. The fluorescence was measured for an interval of 120 sec at 2 sec intervals. The excitation and emission wavelengths used to monitor fluorescence were 470-495 nm and 515-575 nm, respectively. The data was analyzed based on the increase in peak relative fluorescence units (RFU) compared to the basal fluorescence and the data was normalized to the agonist control. The compounds were tested in triplicates per plate and mean values were plotted in Excel XL-Fit to determine IC50 values, percentage of maximal inhibition and the Hill coefficients.

endogenous P2X4 channels = target: T3, endogenous P2X4 channels (Homo sapiens, UniProt Q99571); test: Human Monocyte P2X4 Assay (FLIPR); details: primary human monocytes, 3 μM BzATP, one value per donor; for Emax: read-out: Human P2X4 Monocytes (FLIPR Assay) Efficacy for different donors; for IC50: read-out: Human P2X4 Monocytes (FLIPR Assay) IC50 for different donors
T3 construct: measure calcium influx through endogenous P2X4 channels into primary human monocytes; endogenous in cells; host or cells: primary human monocytes isolated from donor PBMCs
T3 sequence (Q99571 1-388): T1 sequence (Q99571 1-388)
Method: The principle of the assay is to measure calcium influx through endogenous P2X4 channels into primary human monocytes, following activation by 2′,3′-O-(4-benzoyl-benzoyl)-ATP (Bz-ATP). Intracellular calcium concentration changes were measured with a Flipr™ (Molecular Devices) device using a calcium sensitive dye (Fluo-8). In primary monocytes P2X4 is located at the lysosome membrane, therefore exocytosis has to be triggered to expose P2X4 at the cellular membrane.
Human peripheral blood mononuclear cells (PBMCs) from anticoagulated blood (blood cells, BC) were isolated via density gradient centrifugation. Whole blood was diluted 1:3 with PBS. Samples of 30 mL were layered carefully on top of 15 mL Biocoll (BIOCHROM) in 50 mL centrifuge tubes (Falcon). Tubes were centrifuged at 914×g for 25 min at RT without brake. The PBMC layer was removed with a 10 mL pipette and transferred into tubes with ice-cold PBS in a total volume of 50 mL. Cells were washed twice by pelleting at 300×g at 4° C., for 10 min and for 5 min respectively. PBMCs were re-suspended in 10 mL medium (X-vivo, Biozym Scientific) and counted in a Neubauer chamber.
Monocytes were isolated by negative selection using the Monocyte isolation kit II from Miltenyi (#130-091-153) according to the instructions. Isolation should be done fast and cells and solutions should be kept on ice at any time. PBMCs in batches of 10exp8 cells were pelleted (300×g, 10 min) and re-suspended with 300 μL MACS buffer in a 50 mL Falcon tube. FcR Blocking reagent (100 μl) and Biotin-Ab (100 μl) were added, mixed and incubated on ice for 10 min. MACS buffer (300 μL) and anti-Biotin Micro-beads (100 μL) were added, mixed and incubated on ice for 15 min. Cells were washed by pelleting (300×g for 10 min) and re-suspended in 500 μL MACS buffer. For each batch one separation column was placed in the MACS separator and rinsed with 3 mL MACS buffer. The cell suspension was added to the column, followed by 3×3 mL MACS buffer for washing, and the eluent containing the monocytes was collected. Cells were pelleted (300×g for 10 min), re-suspended in X-vivo medium and counted. Monocytes were seeded into fibronectin-coated micro-plates (384-well, black, flat transparent bottom; Corning #3848) at a density of 30,000 cells/well in 50 μL, and cultivated over night (37° C., 5% CO2).
Test substances were dissolved in 100% DMSO at a stock concentration of 10 mM and stored at −20° C. in aliquots. Serial dilutions (2×) were prepared in DMSO and diluted 500× with assay buffer to generate the antagonist plate. In the Flipr measurement, 10 μL per well were transferred (4× dilution) and a final top concentrations of 5 μM and 0.05% DMSO were obtained in the assay. Agonist BzATP was stored at 10 mM in aliquots and diluted to an intermediate concentration of 15 μM to generate the agonist plate. In the Flipr measurement, 10 μL per well were transferred (5× dilution) so that a final assay concentration of 3 μM was obtained.
For the experiment, the medium of the cell plate was discarded manually and 70 μL/well loading buffer was added and incubated for 1 h (37° C., 5% CO2). Loading buffer contained HBSS (w/o calcium/magnesium), 10 mM Hepes pH 7.4, 5 μM Fluo-8 (AM) (Tebu-bio) and 50 mM methylamine (Sigma) to trigger exocytosis. Loading buffer was discarded manually and 30 μL/well low-calcium assay buffer (5 mM KCl, 145 mM NaCl, 0.5 mM CaCl2), 13 mM glucose, 10 mM Hepes pH 7.4) was added. The antagonist plate was transferred (10 μL/well) and after 15 min at RT the agonist plate (10 μL/well) was transferred.
Agonist addition was recorded for 240 seconds after a 10 second baseline. For analysis, a baseline correction was applied, and the maximum of the curve was extracted. Data were normalized towards 0% inhibition (signal at 3 μM BzATP) and 100% inhibition (absence of BzATP stimulation) and fitted with a four-parameter sigmoidal inhibition curve using Prism Graph Pad to obtain IC50 values.

| IC50 (hP2X4) [nM] | IC50 (human P2X4) [nM] | Emax (endogenous P2X4 channels) [%] | IC50 (endogenous P2X4 channels) | Emax (human P2X4) [%] | Structure (SMILES) |
| --- | --- | --- | --- | --- | --- |
| 222 | 26 | – | – | – | NS(=O)(=O)c1cc(NC(=O)Cc2ccccc2Cl)ccc1-n1cc(Cl)cn1 [Example 25, 2-(2-Chlorophenyl)-N-[4-(4-chloro-1H-pyrazol-1-yl)-3-sulfamoylphenyl]acetamide] |
| 155 | 25 | – | – | – | NS(=O)(=O)c1cc(NC(=O)Cc2ccccc2Cl)ccc1-c1cncc(C(F)(F)F)c1 [Example 331, 2-(2-Chlorophenyl)-N-{3-sulfamoyl-4-[5-(trifluoromethyl)pyridin-3-yl]phenyl}-acetamide] |
| – | 34 | 35 | 122 nM and 104 nM | – | NS(=O)(=O)c1cc(NC(=O)Cc2ccccc2Cl)cnc1-n1cc(Cl)cn1 [Example 387, 2-(2-Chlorophenyl)-N-[6-(4-chloro-1H-pyrazol-1-yl)-5-sulfamoylpyridin-3-yl]acetamide] |
| – | 45 | 79 | 141 nM and 34 nM and 91 nM | – | NS(=O)(=O)c1cc(NC(=O)Cc2ccccc2Cl)ccc1-n1cnc(Cl)n1 [Example 24, 2-(2-Chlorophenyl)-N-[4-(3-chloro-1H-1,2,4-triazol-1-yl)-3-sulfamoylphenyl]-acetamide] |
| 205 | 132 | – | – | – | Cn1cc(-c2ccc(NC(=O)Cc3ccccc3Cl)cc2S(N)(=O)=O)cn1 [Example 360, 2-(2-Chlorophenyl)-N-[4-(1-methyl-1H-pyrazol-4-yl)-3-sulfamoylphenyl]acetamide] |
| 227 | 87 | – | – | – | NS(=O)(=O)c1cc(NC(=O)Cc2ccccc2F)cnc1-c1cnn(C(F)F)c1 [Example 321, N-{6-[1-(Difluoromethyl)-1H-pyrazol-4-yl]-5-sulfamoylpyridin-3-yl}-2-(2-fluorophenyl)acetamide] |
| – | 126 | 60 | 303 nM and 183 nM and 110 nM | 70 | COc1ccc(CC(=O)Nc2ccc(-n3cc(Cl)cn3)c(S(N)(=O)=O)c2)cc1 [Example 170, N-[4-(4-Chloro-1H-pyrazol-1-yl)-3-sulfamoylphenyl]-2-(4-methoxyphenyl)acetamide] |
| 117 | 37 | – | – | – | NS(=O)(=O)c1cc(NC(=O)Cc2ccccc2Cl)ccc1-c1cnn(C2CC2)c1 [Example 349, 2-(2-Chlorophenyl)-N-[4-(1-cyclopropyl-1H-pyrazol-4-yl)-3-sulfamoylphenyl]acetamide] |
| – | 31 | – | 78 nM and 164 nM | 90 | NS(=O)(=O)c1cc(NC(=O)Cc2ccccc2Cl)ccc1-n1cc(Br)cn1 [Example 28, N-[4-(4-Bromo-1H-pyrazol-1-yl)-3-sulfamoylphenyl]-2-(2-chlorophenyl)acetamide] |
